Patent publication US20250228239A1, “MOLECULES HAVING PESTICIDAL UTILITY, AND INTERMEDIATES, COMPOSITIONS, AND PROCESSES, RELATED THERETO” (priority 2024, published 2025)
Read-outs that look alike come from different tables or passages of the source.

Experiments:
Format in all cases: in vivo
[1] = tested on: Green Peach Aphid (Myzus persicae, MYZUPE); assay: Bioassays on Green Peach Aphid (GPA), foliar spray on cabbage seedlings; conditions: 72 h
Experimental: Certain molecules disclosed in this document were tested against GPA using procedures described in the following example. In the reporting of the results, the “GPA & YFM Rating Table” was used (See Table Section).
Cabbage seedlings grown in 3-inch pots, with 2-3 small (3-5 cm) true leaves, were used as test substrate. The seedlings were infested with 20-50 GPA (wingless adult and nymph stages) one day prior to chemical application. Four pots with individual seedlings were used for each treatment. Test molecules (2 mg) were dissolved in 2 mL of acetone/methanol (1:1) solvent, forming stock solutions of 1000 ppm test molecule. The stock solutions were diluted 5× with 0.025% Tween 20 in water to obtain the solution at 200 ppm test molecule. A hand-held aspirator-type sprayer was used for spraying a solution to both sides of […] leaves until runoff. Reference plants (solvent check) were sprayed with the diluent only containing 20% by volume of acetone/methanol (1:1) solvent. Treated plants were held in a holding room for three days at approximately 25° C. and ambient relative humidity (RH) prior to grading. Evaluation was conducted by counting the number of live aphids per plant under a microscope. Percent control was measured using Abbott's correction formula (W. S. Abbott, “A Method of Computing the Effectiveness of an Insecticide” J. Econ. Entomol. 18 (1925), pp. 265-267) as follows. Corrected % Control=100*(X−Y)/X where X=No. of live aphids on solvent check plants and Y=No. of live aphids on treated plants. The results are indicated in the table entitled “Table ABC: Biological Results” (See Table Section).

[2] = tested on: Yellow Fever Mosquito (Aedes aegypti, AEDSAE); conditions: for YFM: Table ABC: Biological Results, species YFM
How it was run: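 Compounds from 4000 ppm DMSO stocks were diluted in 90:10 water/acetone and dispensed into wells, then infested with about 1-day-old larvae in liver-powder water. Covered plates were held at room temperature for 3 days and each well was scored for mortality against a rating scale; six replicate plates per compound.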

[3] = tested on: Cabbage Looper (Trichoplusia ni, TRIPNI); assay: Bioassays on Cabbage Looper (CL), 128-well diet tray assay; conditions: Trichoplusia ni
How it was run: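 Percent mortality, averaged across eight replicate wells, after second-instar larvae (1–5 per well) fed for five to seven days on diet dosed at 50 μg/cm^2. Compound was applied in acetone-water 90:10 and dried; trays kept vented at 25° C under 14:10 photoperiod.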

[4] = tested on: Beet Armyworm (Spodoptera exigua, LAPHEG); assay: Bioassays on Beet Armyworm (BAW), 128-well diet tray assay; conditions: Spodoptera exigua
How it was run: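 Eight diet wells per compound were treated at 50 μg/cm^2 (acetone-water 90:10), dried, then infested with 1–5 second-instar larvae each. After five to seven days at 25 °C under 14:10 photoperiod, mortality was scored and averaged across wells.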

[5] = Table ABC: Biological Results, species GPA, read-out: GPA
[6] = Table ABC: Biological Results, species CL, read-out: CL
[7] = Table ABC: Biological Results, species BAW, read-out: BAW

SMILES | pest or weed control at 200 µg/mL [1, 5] [%] | YFM [2] | pest or weed control at 50 µg/cm2 [3, 6] [%] | pest or weed control at 50 µg/cm2 [4, 7] [%] | further results
Nc1c(F)ccc(NC(=O)c2cc(NC(=O)[C@H]3[C@H](c4ccc(F)c(C(F)(F)F)c4)C3(Cl)Cl)ccc2Cl)c1F (relative stereo) [DP8, trans-N-(3-amino-2,4-difluorophenyl)-2-chloro-5-(2,2-dichloro-3-(4-fluoro-3-(trifluoromethyl)phenyl)cyclopropane-1-carboxamido)benzamide] | – | – | – | – | mortality at 200 ppm ([1]; 200 ppm test molecule sprayed on infested cabbage seedlings, three days, Abbott's corrected % control, read-out: GPA % Control (or Mortality) rating): 80 to 100%; pest or weed control at 200 µg/mL ([1]; Green Peach Aphid, Table ABC / ABC-DP rating, read-out: GPA rating): 80 to 100%; YFM rating ([2]; Yellow Fever Mosquito, Table ABC / ABC-DP rating): A (80–100); YFM % Control (or Mortality) rating ([2]; about 1 day-old larvae, 4000 ppm master solution diluted with 90:10 water/acetone, 15 μL per well plus 220 μL larval mixture, 3 days, mortality): A (80–100); mortality at 50 µg/cm2 ([3]; 168 h, second instar larvae, 50 μg/cm^2 of test molecule on artificial diet, 25° C., five to seven days, average of eight wells, read-out: CL % Control (or Mortality) rating): 50 to 100%; pest or weed control at 50 µg/cm2 ([3]; Cabbage Looper, Table ABC / ABC-DP rating, read-out: CL rating): 50 to 100%; mortality at 50 µg/cm2 ([4]; 168 h, second instar larvae, 50 μg/cm^2 of test molecule on artificial diet, 25° C., five to seven days, average of eight wells, read-out: BAW % Control (or Mortality) rating): 50 to 100%; pest or weed control at 50 µg/cm2 ([4]; Beet Armyworm, Table ABC / ABC-DP rating, read-out: BAW rating): 50 to 100%
O=C(Nc1ccc(F)cc1F)c1cc(NC(=O)[C@H]2[C@H](c3cc(Cl)c(Cl)c(Br)c3)C2(Cl)Cl)ccc1Cl (relative stereo) [F1007, trans-5-(3-(3-Bromo-4,5-dichlorophenyl)-2,2-dichlorocyclopropane-1-carboxamido)-2-chloro-N-(2,4-difluorophenyl)benzamide] | 80 to 100 | A (80–100) | 50 to 100 | 50 to 100 | –
C#CCN(C(=O)c1cc(NC(=O)[C@H]2[C@H](c3cc(Cl)cc(Cl)c3)C2(Cl)Cl)ccc1Cl)c1ccc(F)cc1C#N (relative stereo) [F1072, trans-2-Chloro-N-(2-cyano-4-fluorophenyl)-5-(2,2-dichloro-3-(3,5-dichlorophenyl)cyclopropane-1-carboxamido)-N-(prop-2-yn-1-yl)benzamide] | 0 to 80 | A (80–100) | 50 to 100 | 50 to 100 | –
Nc1c(F)ccc(NC(=O)c2cc(NC(=O)[C@H]3[C@H](c4ccc(Cl)c(C(F)(F)F)c4)C3(Cl)Cl)ccc2Cl)c1F (relative stereo) [F1079, trans-N-(3-Amino-2,4-difluorophenyl)-2-chloro-5-(2,2-dichloro-3-(4-chloro-3-(trifluoromethyl)phenyl)cyclopropane-1-carboxamido)benzamide] | 80 to 100 | A (80–100) | 50 to 100 | 50 to 100 | –
O=C(Nc1ccc(F)cc1F)c1cc(NC(=O)[C@H]2[C@H](c3ccc(S(F)(F)(F)(F)F)cc3)C2(Cl)Cl)ccc1Cl (relative stereo) [F1089, trans-2-Chloro-5-(2,2-dichloro-3-(4-(pentafluoro-λ^6-sulfanyl)phenyl)cyclopropane-1-carboxamido)-N-(2,4-difluorophenyl)benzamide] | 0 to 80 | A (80–100) | 50 to 100 | 50 to 100 | –
CCN(C(=O)c1cc(NC(=O)[C@H]2[C@H](c3cc(Cl)cc(Cl)c3)C2(Cl)Cl)ccc1Cl)c1ccc(F)cc1C#N (relative stereo) [F1091, trans-2-Chloro-N-(2-cyano-4-fluorophenyl)-5-(2,2-dichloro-3-(3,5-dichlorophenyl)cyclopropane-1-carboxamido)-N-ethylbenzamide] | 0 to 80 | A (80–100) | 50 to 100 | 50 to 100 | –
N#Cc1cc(F)ccc1N(Cc1ccccc1)C(=O)c1cc(NC(=O)[C@H]2[C@H](c3cc(Cl)cc(Cl)c3)C2(Cl)Cl)ccc1Cl (relative stereo) [F1099, trans-N-Benzyl-2-chloro-N-(2-cyano-4-fluorophenyl)-5-(2,2-dichloro-3-(3,5-dichlorophenyl)cyclopropane-1-carboxamido)benzamide] | 0 to 80 | A (80–100) | 50 to 100 | 50 to 100 | –
O=C(Nc1ccc(F)cc1)c1c(Cl)ccc(NC(=O)[C@H]2[C@H](c3ccc(F)c(Cl)c3)C2(Cl)Cl)c1Cl (relative stereo) [F1103, trans-2,6-Dichloro-3-(2,2-dichloro-3-(3-chloro-4-fluorophenyl)cyclopropane-1-carboxamido)-N-(4-fluorophenyl)benzamide] | 0 to 80 | A (80–100) | 50 to 100 | 50 to 100 | –
O=C(Nc1ccc(F)cc1F)c1c(Cl)ccc(NC(=O)[C@H]2[C@H](c3ccc(F)c(Cl)c3)C2(Cl)Cl)c1Cl (relative stereo) [F1105, trans-2,6-dichloro-3-(2,2-dichloro-3-(3-chloro-4-fluorophenyl)cyclopropane-1-carboxamido)-N-(2,4-difluorophenyl)benzamide] | 0 to 80 | A (80–100) | 50 to 100 | 50 to 100 | –
O=C(Nc1ccccc1)c1c(F)ccc(NC(=O)[C@H]2[C@H](c3ccc(F)c(Cl)c3)C2(Cl)Cl)c1F (relative stereo) [F1108, trans-3-(2,2-Dichloro-3-(3-chloro-4-fluorophenyl)cyclopropane-1-carboxamido)-2,6-difluoro-N-phenylbenzamide] | 80 to 100 | A (80–100) | 50 to 100 | 50 to 100 | –
O=C(Nc1ccc(F)cc1F)c1cc(NC(=O)[C@H]2[C@H](c3cc(Cl)c(Cl)c(C(F)(F)F)c3)C2(Cl)Cl)ccc1Cl (relative stereo) [F1147, trans-2-Chloro-5-(2,2-dichloro-3-(3,4-dichloro-5-(trifluoromethyl)phenyl)cyclopropane-1-carboxamido)-N-(2,4-difluorophenyl)benzamide] | 80 to 100 | A (80–100) | 50 to 100 | 50 to 100 | –
Cc1c(NC(=O)c2cc(NC(=O)[C@H]3[C@H](c4cc(Cl)cc(Cl)c4)C3(Cl)Cl)ccc2Cl)ccc([N+](=O)[O-])c1C (relative stereo) [F1180, trans-2-chloro-5-(2,2-dichloro-3-(3,5-dichlorophenyl)cyclopropane-1-carboxamido)-N-(2,3-dimethyl-4-nitrophenyl)benzamide] | 0 to 80 | A (80–100) | 50 to 100 | 50 to 100 | –
Cc1cc(NC(=O)[C@H]2[C@H](c3ccc(F)c(Cl)c3)C2(Cl)Cl)cc(C(=O)Nc2ccc(F)cc2F)c1Cl (relative stereo) [F1185, trans-2-Chloro-5-(2,2-dichloro-3-(3-chloro-4-fluorophenyl)cyclopropane-1-carboxamido)-N-(2,4-difluorophenyl)-3-methylbenzamide] | 80 to 100 | A (80–100) | 50 to 100 | 50 to 100 | –
COCC(=O)Nc1c(F)ccc(NC(=O)c2cc(NC(=O)[C@H]3[C@H](c4ccc(F)c(C(F)(F)F)c4)C3(Cl)Cl)ccc2Cl)c1F [F1724, 2-Chloro-5-((1R,3R)-2,2-dichloro-3-(4-fluoro-3-(trifluoromethyl)phenyl)cyclopropane-1-carboxamido)-N-(2,4-difluoro-3-(2-methoxyacetamido)phenyl)benzamide] | – | – | – | – | pest or weed control at 200 µg/mL ([1]; Green Peach Aphid, rating class, read-out: GPA): 80 to 100%; pest or weed control at 50 µg/cm2 ([3]; Cabbage Looper, rating class, read-out: CL): 50 to 100%; pest or weed control at 50 µg/cm2 ([4]; Beet Armyworm, rating class, read-out: BAW): 50 to 100%
